This is an account of results in patent US20100048457A1, “GLYCOPROTEIN FOR TREATING CHRONIC OBSTRUCTIVE PULMONARY DISEASES” (Guangzhou Konzern Pharmacetuical Co. Ltd, priority 2007, published 2010).

Molecules are shown by their SMILES.

For test [1], the system named is ciliary movement in trachea mucous of rabbits. Kind of test: Ciliary movement in trachea mucous. Also noted: species or system rabbit; key to Ciliary movement: +++: All ciliary active in field of vision:; ++: ⅓~⅔ ciliary active in field of vision:; +: Less than ⅓ ciliary active in field of vision:; −−: All ciliary inactive in field of vision:
Conditions: Ach, Dosage (g/L) 0.1. As for the experimental part:
The trachea mucous is exposed and washed by Ringer's solution (37° C.), then observe the sample by anatomical lens.
Add an ink into trachea mucous, the ink will move to one way (towards larynx), measure the velocity by micrometer and stopwatch, then calculate the moving velocity of mucus moving (second/2 mm).

In test [2] the test system is IL-4. Put plainly: IL-4 in blood serum and BALF of asthmatic guinea pig (ELISA). Type of test: in vivo. Conditions: aminophylline group. On the procedure:
(§1) 11) IL-2, IL-4 assaying box for ELISA: provided by Shenzhen Jing Mei Co., Ltd.
(§2) The isobarical lavage machine is infused with Locke's solution, 37° C., the level of bottom is 60-100 cm higher than the T pipe. Guinea pigs are narcosis under intraperitoneal anesthesia by 1.5 ml 1% pentobarbital. Take 2 ml blood from cervical artery for detection of inflammatory factors. Kill the animal and open its chest, separate and cut down the trachea, and then bring out the trachea and the lung together, place in the Locke's solution, 37° C. Extrude the air out of the lung, and ligate the trachea with sleeve and connect with the T pipe. Open the T pipe to let Locke's solution flow into the lung, adjust the velocity of flow to about 25 ml/min. Take 5 ml lavage fluid for detection of inflammatory factors. When the velocity of flow is stable, animals are given 0.5% ovalbumin to stimulate the twitching of bronchia. After 30 minutes, observe and record the flux per minute, 6-10 minutes.

For test [3], the system named is model animal with emphysema and pulmonary hypertension. Put plainly: Experimental emphysema and pulmonary hypertension model. Type of test: in vivo, golden hamster. As for the experimental part:
Preparation of model animal with emphysema and pulmonary hypertension: choose 75 from 90 male golden hamster randomly, 100-150 g each, to make model mouse. The model-building is performed on elected 75 animals under intraperitoneal anesthesia. Then open the mouse and exposure its throat, insert a pipe and inject the medicine fluid (60 U/100 g weight) into the body through the pipe, then shake the animal to let the medicine equality. Animals are wake in several hours, and feed normally. Other 15 golden hamster are acted as normal control group (Group A), the same volume of saline is injected in each trachea of each animal.
After perfusion of the medicine by gavage, animals are killed to measure the following:
Right Systolic Pressure (RSP): animals are cut in the neck to expose the right jugular vein, then insert the pipe into the right jugular vein to right ventricle, the pipe also connects the physiological monitor (RM-6300, Japan) for blood pressure measuring. The right carotic artery is also exposed and cannulated for blood pressure measuring.
Right Ventricle Hypertrophy Index (RVHI): kill the animal by bleeding, open the chest and bring the heart out, then cut the right ventricle down. Wash the heart by saline, absorb the water by filter paper, and then weight the right ventricle, and weight the total weight of the left ventricle and atrioventricular septalium. RVHI=weight of right ventricle/(total weight of left ventricle and atrioventricular septalium)
Pneumonic bronchoalveolar lavage fluid analyse: isobarical lavage machine is infused with Locke's solution, 37° C., the level of bottom is 60-100 cm higher than the T pipe. Kill the animal and open its chest, separate and cut down the trachea, and then bring out the trachea and the lung together, place in the Locke's solution, 37° C. Extrude the air out of the lung, and ligate the trachea with sleeve and connect with the T pipe. Open the T pipe to let Locke's solution flow into the lung, adjust the velocity of flow to about 25 ml/min. Concentrate the lavage 400 g by the centrifugal for 10 minutes, remove the supernatant, then add physiological saline into the deposit to make the cell suspend. Count the number of cells of bronchoalveolar lavage fluid ([…]) by inverted microscope, four times for one sample. Count the number of cells (/ml/g) of bronchoalveolar lavage fluid (BALF). Dye the smear of the suspend with HE, then count the ratio of macrophage in cell types.
Statistic treatment: data is expressed by x±s, and analyzed by one-way ANOVA, and compare with each group by Newman-Keuls method, P<0.05 meants distinct difference.

The test system of test [4] is IL-2. Kind of test: IL-2 in blood serum and BALF of asthmatic guinea pig (ELISA). Type of test: in vivo. Conditions: aminophylline group. On the procedure:
as §1, §2
Background: ELISA stands for enzyme-linked immunosorbent assay.

Test [5] deals with isolated bronchitis in contractive state. Put plainly: Lung overfall of isolated bronchitis in contractive state, before and after dosing. Also noted: species or system guinea pig. To be noted: aminophylline group. As for the experimental part: as §2
After 6-minute stimulating, the lung overfall of isolated bronchitis becomes stable.

Test [6] relates to model mouse with chronic bronchitis. Kind of test: Cough of chronic bronchitis (SO2 stimulation). Type of test: in vivo. Conditions: Dextromethorphan 15 mg/kg (positive control, also dexamethason 1.2 mg/kg). On the procedure:
Preparation of model mouse with chronic bronchitis: choose 90 white mice, 20-25 g each, male or female Divide the mice randomly into six groups. In normal control group, no S02 stimulation is given, mice are feeding normally. In other groups, the following SO2 stimulation is given: place a utensil with 0.5 g anhydrous sodium sulfite in an 8 L bell cover, and place mice of each group into the bell cover, and add 50% vitriol 5 ml into the utensil, and take out the mice after 2 minutes; Once every day, 21 days.
During the dosing, observe the whole condition of animals in each group, and give the above SO2 stimulation to them in one hour after the last dosing. Record the delitescence of cough of each animal, and record the times of cough of each animal in 3 minutes.

The subject of test [7] is model mouse with acute bronchitis. Kind of test: Cough of acute bronchitis (SO2 stimulation). The class given is in vivo. Conditions: Dextromethorphan 15 mg/kg oral. On the procedure: Preparation of model mouse with acute bronchitis: choose white mice, 20-25 g each, male or female. Pre-select method: place a utensil with 0.5 g anhydrous sodium sulfite in an 1 L beaker, add 50% vitriol 5 ml into the utensil, and place mice of each group into the beaker after 15 seconds, and take out the mice after 30 seconds. The mouse which starts cough in 3 minutes is an eligible mouse. Record the delitescence of cough of each animal, and record the times of cough of each animal. […] During the dosing, observe the whole condition of animals in each group, and give the above SO2 stimulation to them for 30 seconds in one hour after the last dosing. Record the delitescence of cough of each mouse, and record the times of cough of each animal in 3 minutes.

Test [8] concerns Staphyloccocus aureus Rosenbach. Put plainly: Treatment of infection by Staphyloccocus aureus Rosenbach in vivo. The source says: (§3) 2.10.1 select some bacterial related to acute pharyngitis, such as Staphyloccocus aureus Rosenbach, and α-hemolytic streptococcus, inject above bacterial into animals, such as mouse, by intraperitoneal dosing or subcutaneous injection, which will make certain animal death. Dosed before infecting the bacterial, and dosed after infecting the bacterial, the animals will be observed for eating, drinking, and movement.
(§4) Observe and record the eating, drinking, and movement in 4 days as the normal value. Besides of control group, animals in other groups are injected 0.5 ml Staphyloccocus aureus Rosenbach by intraperitoneal dosing or subcutaneous injection In the next day, animals are feed 5 days by gavage, twice every day. Observe the condition of eating, drinking, and movement, and mean growth rates, and then compare with control group.

Test [9] deals with α-hemolytic streptococcus. Put plainly: Experimental treatment of infection by α-hemolytic streptococcus in vivo. To be noted: Ofloxacin 500 mg/kg.
Text: as §3, §4
The other methods are the same as the section 2.10.1.

The subject of test [10] is model rat with chronic bronchitis. Put plainly: Treatment of pneumonia, histology of trachea and pneumonic tissue. Type of test: in vivo, SD rat. Conditions: positive group, dexamethason 1.2 mg/kg (FIG. 5), gavage 10 days.
Experimental: Preparation of model rat with chronic bronchitis: choose 60 SD rats, 250-300 g each, male or female. Divide the rats randomly into six groups, one is normal control group, the other five groups are model groups which are modeling according to section 2.4.
During the dosing, observe the whole condition of animals in each group, and carry out the following procedures in ten days after the last dosing: The rats are narcosis under intraperitoneal anesthesia by 0.4 ml/100 g 10% chloral hydrate, and put on the operating table, open the neck and chest, bring out the trachea and pneumonic tissue, and then observe the condition of the sample. The sample is fixed by 10% formalin solution, and embedded by paraffin, and cut into slices, and dyed by HE. The inflammatory pathological changes are observed by microscope, including the integrality of epidermis, thickness of glands, infiltration of inflammatory cells in tracheal mucous, follicular lymph, and thickness of tracheal wall.
Setting [11] is: Ofloxacin 500 mg/kg, gavage twice every day.

Consider `CC(=O)OCC[N+](C)(C)C.[Cl-]` [Ach, Acetylcholine chloride], for which, in test [1], the Ciliary movement result is on record as “+++”. The same compound came in with a Moving velocity in test [1] (ink on trachea mucous) of 5.36 ± 0.64 second/2 mm.

`Cn1c(=O)c2[nH]cnc2n(C)c1=O` [Aminophylline]: in test [2], the “IL-4 in BALF” value is 26.81 ± 7.76 b pg/ml and the IL-4 in serum was 1.78 ± 1.56 b pg/ml. Besides, the “amount of IL-4 in blood serum and BALF” value in test [2] (summary of table 9) is given as “decreases obviously”. The compound also had an MS in test [3] (aminophylline positive control group) of 96.7 ± 9.6%. In test [3] (aminophylline positive control group, gavage), this compound had an RVHI of 28.62 ± 8.81%. For the same compound, the BALF in [3] (cells in bronchoalveolar lavage fluid, aminophylline positive control group) is 364.8 ± 95.7 /mm^3. Also, in test [3] (comparing with the model group, aminophylline group), the “pathological changes of emphysema” value is on record as “non-obviously improvement”. In [4], the “IL-2 in BALF” value was 0.13 ± 0.08 b pg/ml and the IL-2 in serum came out at 1.45 ± 0.86 b pg/ml. Also, the “amount of IL-2 in blood serum and BALF” value in test [4] (summary of table 9) is listed as “decreases obviously”. Moreover, in test [5], the “lung overfall of isolated bronchitis in contractive state, After dosing” value was found to be 17.13 ± 3.08. For the same compound, the “lung overfall of isolated bronchitis in contractive state, Before dosing” value in test [5] (baseline before dosing) came to 9.45 ± 1.86. For the same compound, the “lung overfall of isolated bronchitis in contractive state, After dosing” value in [5] (listed as aminophylline) is given as “increases obviously”.

Consider `COc1ccc2c(c1)[C@]13CCCC[C@@H]1[C@H](C2)N(C)CC3` [Dextromethorphan], for which the Delitescence in test [6] (delitescence of cough) amounted to 17.70 ± 4.521; in test [7] (delitescence of cough) it was 30.40 ± 9.91. For the same compound, the “Times of Cough” value in test [6] (in 3 minutes) stood at 77.60 ± 9.88; in test [7] (in 3 minutes), 35.20 ± 5.65.

In the case of `CC1COc2c(N3CCN(C)CC3)c(F)cc3c(=O)c(C(=O)O)cn1c23` (centres unmarked) [Ofloxacin], in test [8] (setting [11]), the “After infection, dringking, Day 1” value turned out to be 2.7 mL; the “After infection, dringking, Day 2” value is 3.2 mL; the “After infection, dringking, Day 3” value turned out to be 3.0 mL; the “After infection, dringking, Day 4” value is 3.5 mL. For the same compound, in [8] (setting [11]), the “After infection, dringking, Day 5” value worked out at 4.3 mL; the “After infection, eating, Day 1” value came to 1.9 g; the “After infection, eating, Day 2” value was found to be 2.5 g; the “After infection, eating, Day 3” value worked out at 3.2 g. Moreover, in test [8] (setting [11]), the “After infection, eating, Day 4” value is 3.6 g and the “After infection, eating, Day 5” value was 3.9 g. This compound also registered a Survive in test [8] (of 15 animals, Ofloxacin group) of 15. Besides, in test [9], the “After infection, dringking, Day 1” value worked out at 2.3 mL; the “After infection, dringking, Day 2” value was determined as 3.6 mL; the “After infection, dringking, Day 3” value was 3.8 mL; the “After infection, dringking, Day 4” value came to 3.8 mL. Also, in test [9], the “After infection, dringking, Day 5” value was determined as 4.2 mL; the “After infection, eating, Day 1” value was found to be 2.1 g; the “After infection, eating, Day 2” value is 2.3 g; the “After infection, eating, Day 3” value was determined as 2.9 g. In addition, in test [9], the “After infection, eating, Day 4” value is reported as 3.2 g and the “After infection, eating, Day 5” value is given as 4.5 g.

On to `C[C@@H]1C[C@H]2[C@@H]3CCC4=CC(=O)C=C[C@]4(C)[C@@]3(F)[C@@H](O)C[C@]2(C)[C@@]1(O)C(=O)CO` [dexamethason], for which the “inflammatory pathological changes of trachea and pneumonic tissue (microscope)” value in [10] is “obviously different from the model control group”.
